# Results as given in US9695155B2, “Herbicidal substituted pyrimidinyloxy benzene compounds” (E. I. DU PONT DE NEMOURS AND COMPANY, priority 2013, dated 2017).
# Tests used:
# [1] = test system: waterhemp_RES1 (ALS & Triazine resistant common waterhemp); test: Test E postemergence; type: in vivo, Amaranthus rudis
# In short: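 Compound in a non-phytotoxic solvent mixture with surfactant was applied preemergence to seeds in silt loam soil, or postemergence to plants 2 to 18 cm tall grown in peat-based potting medium. Plants were kept in a greenhouse for 14 to 21 days, then rated visually against untreated controls on a 0 (no effect) to 100 (complete control) scale.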
# smartweed = test: Test E postemergence; type: in vivo, ladysthumb smartweed
# Excerpt: Seeds of plant species selected from corn (Zea mays), soybean (Glycine max), velvetleaf (Abutilon theophrasti), lambsquarters (Chenopodium album), wild poinsettia (Euphorbia heterophylla), palmer pigweed (Amaranthus palmeri), waterhemp (common waterhemp, Amaranthus rudis), surinam grass (Brachiaria decumbens), large (Lg) crabgrass (Digitaria sanguinalis), Brazilian crabgrass (Digitaria horizontalis), fall panicum (Panicum dichotomiflorum), giant foxtail (Setaria faberii), green foxtail (Setaria viridis), goosegrass (Eleusine indica), johnsongrass (Sorghum halepense), ragweed (common ragweed, Ambrosia elatior), barnyardgrass (Echinochloa crus-galli), sandbur (southern sandbur, Cenchrus echinatus), arrowleaf sida (Sida rhombifolia), Italian ryegrass (Lolium multiflorum), dayflower (Virginia (VA) dayflower, Commelina virginica), field bindweed (Convolvulus arvensis), morningglory (Ipomoea coccinea), nightshade (eastern black nightshade, Solanum ptycanthum), kochia (Kochia scoparia), yellow nutsedge (Cyperus esculentus), cocklebur (common cocklebur, Xanthium strumarium), smartweed (ladysthumb smartweed, and hairy beggarticks (Bidens pilosa), were planted into a silt loam soil and treated preemergence with test chemicals formulated in a non-phytotoxic solvent mixture which included a surfactant.
# At the same time, plants from these crop and weed species and also horseweed (Canada horseweed, Conyza canadensis), waterhemp_RES1, (ALS & Triazine resistant common waterhemp, Amaranthus rudis), and waterhemp_RES2, (ALS & HPPD resistant common waterhemp, Amaranthus rudis) were planted in pots containing Redi-Earth® planting medium (Scotts Company, 14111 Scottslawn Road, Marysville, Ohio 43041) comprising spaghnum peat moss, vermiculite, wetting agent and starter nutrients were treated with postemergence applications of test chemicals formulated in the same manner. Plants ranged in height from 2 to 18 cm for postemergence treatments (1- to 4-leaf stage). Treated plants and controls were maintained in a greenhouse for 14 to 21 days, after which time all species were compared to controls and visually evaluated. Plant response ratings, summarized in Table E, are based on a scale of 0 to 100 where 0 is no effect and 100 is complete control. A dash (-) response means no test result.
# [2] = Postemergence, 31 g ai/ha, scale 0 to 100
# [3] = Postemergence, 62 g ai/ha, scale 0 to 100
# [4] = Postemergence, 125 g ai/ha, scale 0 to 100
# [5] = Postemergence, 250 g ai/ha, scale 0 to 100
# [6] = postemergence, 16 g ai/ha, scale 0 to 100, 0 no effect, 100 complete control
SMILES,"Plant response rating, Waterhemp_RES1 [1, 2]","Plant response rating, Waterhemp_RES1 [1, 3]","Plant response rating, Waterhemp_RES1 [1, 4]","Plant response rating, Waterhemp_RES1 [1, 5]","Plant response rating, Waterhemp_RES1 [1, 6]","Plant response rating, Smartweed (smartweed; [3])","Plant response rating, Smartweed (smartweed; [4])","Plant response rating, Smartweed (smartweed; [5])","Plant response rating, Smartweed (smartweed; [6])","Plant response rating, Waterhemp_RES1 ([1]; postemergence, 8 g ai/ha, scale 0 to 100, 0 no effect, 100 complete control)","Plant response rating, Smartweed (smartweed; [2])"
"N#Cc1cccc(Oc2ncc(Br)cn2)c1-n1cc(C(F)(F)F)cn1 [Compound 59, 3-[(5-bromo-2-pyrimidinyl)oxy]-2-[4-(trifluoromethyl)-1H-pyrazol-1-yl]benzonitrile]",80,90,95,100,70,80,100,100,55,,
Clc1cnc(Oc2cccc(Br)c2-n2cc(Br)cn2)nc1 [Compound 65],85,90,98,,70,,,,,65,
"N#Cc1cccc(Oc2ncc(Cl)cn2)c1-n1cc(C(F)(F)F)cn1 [Compound 58, 3-[(5-chloro-2-pyrimidinyl)oxy]-2-[4-(trifluoromethyl)-1H-pyrazol-1-yl]benzonitrile]",80,95,95,100,80,85,100,100,50,,65
